Patent publication US8637099B2, “Use of Vitex agnus castus extracts for preparing a medicament” (Max Zeller Sohne AG, priority 2007, dated 2014)

Test system: Fisher rats
Assay: Tele-Stereo-EEG: field potentials (spectral power) in freely moving rats
Type: in vivo, rat
Conditions: 4 mg i.p.

OC1(c2ccc(Cl)cc2)CCN(Cc2c[nH]c3ccccc23)CC1 [L-741,626]
changes in the EEG power spectrum: strong decrease of spectral power mainly within the alpha2 waves
